Patent US6368788B1 (priority 1987, dated 2002)

Test system: acute respiratory infections
Assay: Prophylaxis of respiratory infection in athletes in training, intranasal L-Glu-L-Trp
Assay type: in vivo, human
Details: After L-Glu-L-Trp

L-Glu-L-Trp
B-Lymphocytes (Athletes): 0.29 ± 0.02 ×10^9/L
B-Lymphocytes % Normal Value (Athletes): (74%)
B-Lymphocytes (%) (Athletes): 13.6 ± 0.9 %
Blasts w/Con-A (Athletes): 53.4 ± 3.9%
Blasts w/PHA (Athletes): 42.5 ± 2.5 %
C3 (Athletes): 0.8 ± 0.02 g/L
Eosinophils (Athletes): 0.23 ± 0.03 ×10^9/L
Eosinophils (%) (Athletes): 4.2 ± 0.6%
Eosinophils, % Normal Value (Athletes): (96%)
Granulocyte Cationic Proteins (Athletes): 1.1 ± 0.04
IgA (Athletes): 1.8 ± 0.1 mg/mL
IgA % Normal Value (Athletes): (138%)
IgG (Athletes): 10.2 ± 0.6 mg/mL
IgG % Normal Value (Athletes): (84%)
IgM (Athletes): 1.1 ± 0.07 mg/mL
IgM % Normal Value (Athletes): (100%)
Leukocytes (Athletes): 6.1 ± 0.2 ×10^9/L
Leukocytes % Normal Value (Athletes): (109%)
Leukocytes, Ratio Post-Treat/Pre-Treat Value (Athletes): (1.09)
Lymphocytes (Athletes): 2.22 ± 0.1 ×10^9/L
Lymphocytes % Normal Value (Athletes): (104%)
Lymphocytes, % (Athletes): 34.9 ± 4.7%
Monocytes (Athletes): 0.59 ± 0.05 ×10^9/L
Monocytes, % (Athletes): 9.4 ± 0.5%
Monocytes, % Normal Value (Athletes): (137%)
Neutrophils (Athletes): 3.01 ± 0.2 ×10^9/L
Neutrophils, % (Athletes): 49.0 ± 1.5%
Neutrophils, % Normal Value (Athletes): (115%)
Phagocytosis (yeast) (Athletes): 73.3 ± 1.5
Salivary IgM (Athletes): 0.65 g/L
Salivary Lysozyme (Athletes): 68.7 ± 1.3 %
Salivary Secretory IgA (Athletes): 0.056 ± 0.004 g/L
Serum Lysozyme (Athletes): 60.2 ± 1.6%
Serum β-Lysin (Athletes): 57.6 ± 3.2 %
T-Lymphocytes (Athletes): 1.55 ± 0.08 ×10^9/L
T-Lymphocytes % Normal Value (Athletes): (108%)
T-Lymphocytes (%) (Athletes): 70.8 ± 1.4 %
T-helper (CD4+) (Athletes): 1.25 ± 0.07 ×10^9/L
T-helper (CD4+), % (Athletes): 56.1 ± 1.3 %
T-helper (CD4+), % Normal Value (Athletes): (112%)
T-suppressor (CD8+) (Athletes): 0.12 ± 0.02 ×10^9/L
T-suppressor (CD8+), % (Athletes): 5.9 ± 0.7%
T-suppressor (CD8+), % Normal Value (Athletes): (86%)
Total Salivary IgA (Athletes): 0.55 ± 0.05 g/L
B-Lymphocytes (Controls): 0.41 ± 0.05 ×10^9/L
B-Lymphocytes % Normal Value (Controls): (85%)
B-Lymphocytes (%) (Controls): 20.1 ± 1.5%
Blasts w/Con-A (Controls): 66.8 ± 4.0 %
Blasts w/PHA (Controls): 34.1 ± 3.1%
C3 (Controls): 0.7 ± 0.03 g/L
Eosinophils (Controls): 0.22 ± 0.07 ×10^9/L
Eosinophils (%) (Controls): 4.0 ± 0.8%
Eosinophils, % Normal Value (Controls): (85%)
Granulocyte Cationic Proteins (Controls): 1.22 ± 0.1
IgA (Controls): 1.8 ± 0.2 mg/mL
IgA % Normal Value (Controls): (100%)
IgG (Controls): 12.6 ± 0.7 mg/mL
